This note sets out measurements from article PMC5024318, “Crystal structures of the bifunctional tRNA methyltransferase Trm5a” (Scientific Reports, 2016).

Test [1] has as its target T1, PaTrm5a (Pyrococcus abyssi, UniProt Q9V2G1).
T1 construct: gene taw22
The test can be described thus: X-ray crystal structure, cocrystallisation, […] Å. Format: binding. As to conditions: PEG 3350, HEPES pH 7.5, Ca(OAc)2, KCl, 25 °C; SAM site in D3.

In test [2] the target is T1, PaTrm5a. The test can be described thus: X-ray crystal structure, cocrystallisation with SAM (MTA as its degradation product), […] Å. Format: binding. The following applies: PEG 3350, HEPES pH 7.5, Ca(OAc)2, KCl, 25 °C; SAM site in D3.

The structures appear in SMILES notation.

T1 sequence (Q9V2G1 whole entry): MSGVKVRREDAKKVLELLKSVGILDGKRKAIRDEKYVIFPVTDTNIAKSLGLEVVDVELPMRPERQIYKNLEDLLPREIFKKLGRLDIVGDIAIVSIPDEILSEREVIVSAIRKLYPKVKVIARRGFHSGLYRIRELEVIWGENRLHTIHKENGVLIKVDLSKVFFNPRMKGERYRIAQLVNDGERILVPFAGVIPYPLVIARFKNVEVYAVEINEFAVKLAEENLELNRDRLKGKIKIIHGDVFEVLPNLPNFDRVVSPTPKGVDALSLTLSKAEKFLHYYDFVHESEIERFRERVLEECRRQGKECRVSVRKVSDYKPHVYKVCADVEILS

Regarding `Nc1ncnc2c1ncn2[C@@H]1O[C@H](CSCC[C@H](N)C(=O)O)[C@@H](O)[C@H]1O` [SAH, S-adenosyl-L-homocysteine], the “X-ray crystal structure, cocrystallisation, 2.00 Å” value on PaTrm5a [1] was “the adenosine moiety and the methionine group are specifically recognised by hydrogen bonding interactions”.
On to `CSC[C@H]1O[C@@H](n2cnc3c(N)ncnc32)[C@H](O)[C@@H]1O` [MTA, 5′-methylthioadenosine], for which, at PaTrm5a [2], the “X-ray crystal structure, cocrystallisation with SAM (MTA as its degradation prod)” value was “MTA fits well in the ligand-binding pocket, and interacts with the enzyme”.
